TGI data for 21 molecules are collected here from PubChem BioAssay (NCI).

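48-hour exposure; five concentrations; linearly interpolated endpoints. Definition used: TGI = concentration required for complete inhibition of growth.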

Test systems include A549 NSCLC; MDA-MB-231 breast; OVCAR-4 ovarian; OVCAR-8 ovarian; SF-295 CNS; SR leukemia; T-47D breast; U251 CNS; UACC-257 melanoma; UACC-62 melanoma.
Holding throughout (assay): NCI-60 cell line screen, 48 h

Consider `COc1ccc(OC)c(NC2=NCCO2)c1`, for which the TGI in the assay with A549 NSCLC, in the assay with MDA-MB-231 breast, in the assay on OVCAR-4 ovarian, with OVCAR-8 ovarian, with SF-295 CNS and with SR leukemia was greater than 100 µM in each case. In addition, the TGI with T-47D breast, in the assay on U251 CNS, with UACC-257 melanoma and in the assay with UACC-62 melanoma was greater than 100 µM in each case.

Turning to `CCOC(=O)CCC(NC(=O)c1ccc(Nc2nc3cc(C(F)(F)F)ccc3nc2C(=O)OCC)cc1)C(=O)OCC` (stereo unspecified), the TGI in the assay on A549 NSCLC is 27.4 µM; in the assay on MDA-MB-231 breast, 34.1 µM; with OVCAR-8 ovarian, 24.6 µM; with SF-295 CNS it was 19.3 µM; in the assay with SR leukemia, greater than 100 µM; in the assay with T-47D breast it was 29.7 µM. Besides, the TGI worked out at 23.3 µM with U251 CNS, 34.5 µM with UACC-257 melanoma and 41.7 µM in the assay on UACC-62 melanoma.

For the molecule `CC(=O)NNc1nc(C)c(C(/C=C/c2ccc([N+](=O)[O-])cc2)=N/NC(N)=O)s1`, the TGI in the assay with A549 NSCLC, in the assay with MDA-MB-231 breast, in the assay with OVCAR-4 ovarian, in the assay on OVCAR-8 ovarian, with SF-295 CNS and in the assay with SR leukemia was greater than 100 µM each time. Besides, the TGI in the assay with T-47D breast, with U251 CNS, in the assay with UACC-257 melanoma and in the assay with UACC-62 melanoma was greater than 100 µM throughout.

On to `CC(C)(C)c1ccc(O)c(C(c2ccc([N+](=O)[O-])cc2)c2cc(C(C)(C)C)ccc2O)c1`, for which the TGI with A549 NSCLC was determined as 3.77 µM; in the assay with MDA-MB-231 breast it was 3.78 µM; in the assay on OVCAR-4 ovarian it was 3.91 µM; in the assay with OVCAR-8 ovarian, 7.82 µM; in the assay on SF-295 CNS, 3.64 µM; with SR leukemia, 5.47 µM. For the same molecule, the TGI in the assay with T-47D breast was determined as 8.72 µM; in the assay with U251 CNS it was 4.81 µM; with UACC-257 melanoma it was 3.41 µM; in the assay on UACC-62 melanoma, 3.2 µM.

Take `O=C1CCCCC/C1=C\c1cccc([N+](=O)[O-])c1`: the TGI was greater than 100 µM in the assay with A549 NSCLC; 56.4 µM in the assay with MDA-MB-231 breast; greater than 100 µM in the assay on OVCAR-8 ovarian; 50.4 µM in the assay with SF-295 CNS; 39.9 µM in the assay with SR leukemia; greater than 100 µM in the assay on T-47D breast. Further, the TGI in the assay with U251 CNS is greater than 100 µM; with UACC-257 melanoma, 54.8 µM; in the assay with UACC-62 melanoma, 67.6 µM.

Regarding `CCCc1n[nH]c(=O)n1N1C(=O)C=CC1=O`, the TGI in the assay on A549 NSCLC, in the assay with MDA-MB-231 breast, in the assay with OVCAR-4 ovarian, in the assay with SF-295 CNS, with SR leukemia and in the assay on T-47D breast was greater than 100 µM in each case. The TGI with U251 CNS, in the assay with UACC-257 melanoma and in the assay on UACC-62 melanoma was greater than 100 µM each time.

With `N#CCCN(CCC#N)c1ccc(/C=C2\SC(=S)NC2=O)cc1`, the TGI in the assay with A549 NSCLC, in the assay with MDA-MB-231 breast, with OVCAR-4 ovarian, in the assay with OVCAR-8 ovarian, in the assay with SF-295 CNS and in the assay on SR leukemia was greater than 100 µM each time. The TGI in the assay on T-47D breast is greater than 100 µM; in the assay with U251 CNS it was 47 µM; in the assay on UACC-257 melanoma, greater than 100 µM; in the assay with UACC-62 melanoma it was greater than 100 µM.

Regarding `CC(=O)OC12CC(C(F)(F)F)(C(F)(F)F)OC1(OC(C)=O)CC(C(F)(F)F)(C(F)(F)F)O2` (stereo unspecified), the TGI with A549 NSCLC was 5.6 µM; in the assay on MDA-MB-231 breast it was 53.2 µM; in the assay on OVCAR-4 ovarian it was greater than 100 µM; in the assay on OVCAR-8 ovarian, greater than 100 µM; in the assay on SF-295 CNS, greater than 100 µM; with SR leukemia, 82.1 µM. Further, the TGI in the assay on T-47D breast is 8.56 µM; in the assay with U251 CNS it was 19.2 µM; with UACC-257 melanoma it was greater than 100 µM; in the assay on UACC-62 melanoma, greater than 100 µM.

Regarding `COCCOC(C)C(=O)C(O)S(=O)(=O)O` (stereo unspecified), the TGI in the assay with A549 NSCLC, in the assay on MDA-MB-231 breast, in the assay on OVCAR-4 ovarian, in the assay on OVCAR-8 ovarian, in the assay on SF-295 CNS and in the assay with SR leukemia was greater than 100 µM in each case. Further, the TGI in the assay with T-47D breast, in the assay on U251 CNS, in the assay on UACC-257 melanoma and in the assay with UACC-62 melanoma was greater than 100 µM in each case.

On to `O=C(N/N=C\c1cccs1)c1ccncc1`, for which the TGI with A549 NSCLC, in the assay on MDA-MB-231 breast, in the assay with OVCAR-4 ovarian, with OVCAR-8 ovarian, in the assay with SF-295 CNS and in the assay with SR leukemia was greater than 100 µM throughout. The TGI with T-47D breast, with U251 CNS, with UACC-257 melanoma and in the assay on UACC-62 melanoma was greater than 100 µM in each case.

As for `Cn1c(=O)c2c(nc3n2CCC(=O)N3CCCCl)n(C)c1=O`, the TGI in the assay with A549 NSCLC, with MDA-MB-231 breast, in the assay on OVCAR-4 ovarian, in the assay with OVCAR-8 ovarian, in the assay with SF-295 CNS and in the assay with SR leukemia was greater than 100 µM each time. Also, the TGI in the assay on T-47D breast, in the assay with U251 CNS, in the assay with UACC-257 melanoma and with UACC-62 melanoma was greater than 100 µM each time.

Regarding `N/C(=N\S(=O)(=O)c1ccc(-c2ccccn2)s1)Nc1ccc(Cl)cc1`, the TGI was 47.2 µM in the assay with A549 NSCLC; 27.9 µM with MDA-MB-231 breast; 37.7 µM with OVCAR-4 ovarian; 37.6 µM in the assay on OVCAR-8 ovarian; 40.3 µM with SF-295 CNS; 53.1 µM with SR leukemia. Moreover, the TGI with T-47D breast turned out to be 45.6 µM; with U251 CNS, 28.6 µM; in the assay with UACC-257 melanoma, 21.1 µM; in the assay with UACC-62 melanoma, 26.4 µM.

As to `C/C(=N/NC(=S)N(C)C)c1ccccc1O`, the TGI was greater than 100 µM in the assay on A549 NSCLC; greater than 100 µM in the assay with MDA-MB-231 breast; greater than 85 µM in the assay on OVCAR-4 ovarian; greater than 74.4 µM in the assay on OVCAR-8 ovarian; greater than 100 µM with SF-295 CNS; greater than 39.5 µM in the assay with SR leukemia. For the same molecule, the TGI is greater than 85.8 µM with T-47D breast, greater than 100 µM in the assay on U251 CNS, 63.4 µM in the assay on UACC-257 melanoma and 27 µM in the assay with UACC-62 melanoma.

`C[C@@H](NC(=O)[C@@H]1C[C@]1(C)CO)c1cccc2ccccc12`: the TGI in the assay with A549 NSCLC, with MDA-MB-231 breast, in the assay on OVCAR-4 ovarian, in the assay with OVCAR-8 ovarian, with SF-295 CNS and in the assay on SR leukemia was greater than 100 µM each time. Also, the TGI in the assay on T-47D breast, with U251 CNS, in the assay with UACC-257 melanoma and in the assay with UACC-62 melanoma was greater than 100 µM throughout.

Turning to `CCOC(=O)C1(C#N)C2(C#N)C(N)=NC(ON=C(C)C)(ON=C(C)C)C12C#N` (stereo unspecified), the TGI in the assay on A549 NSCLC, in the assay with MDA-MB-231 breast, in the assay on OVCAR-4 ovarian, in the assay on OVCAR-8 ovarian, with SF-295 CNS and in the assay with SR leukemia was greater than 100 µM throughout. Also, the TGI in the assay with T-47D breast, in the assay with U251 CNS, in the assay on UACC-257 melanoma and in the assay on UACC-62 melanoma was greater than 100 µM each time.

For the molecule `CCCCC(=C=C(C)CO)C1CCCN1C(=O)OC(C)(C)C` (stereo unspecified), the TGI is 48.1 µM in the assay on A549 NSCLC; 34 µM in the assay with MDA-MB-231 breast; 39.3 µM with OVCAR-4 ovarian; 37.3 µM with OVCAR-8 ovarian; 31.7 µM in the assay on SF-295 CNS; 31.5 µM in the assay on SR leukemia. Moreover, the TGI is greater than 100 µM in the assay on T-47D breast, 31.7 µM in the assay on U251 CNS, 32.7 µM in the assay on UACC-257 melanoma and 26.9 µM in the assay on UACC-62 melanoma.

Take `Cc1ccc2n(c1)cc(-c1ccc(/C=N/NC(=N)N/N=C/c3ccc(-c4cn5cc(C)ccc5[n+]4C)cc3)cc1)[n+]2C`: the TGI in the assay on A549 NSCLC, in the assay with MDA-MB-231 breast, in the assay on OVCAR-4 ovarian, with OVCAR-8 ovarian, in the assay on SF-295 CNS and in the assay with SR leukemia was greater than 100 µM in each case. Besides, the TGI with T-47D breast, in the assay with U251 CNS and in the assay with UACC-257 melanoma was greater than 100 µM in each case.

As for `CSc1c2c(C)n[nH]c2nn1-c1ccccc1`, the TGI with A549 NSCLC, with MDA-MB-231 breast, with OVCAR-4 ovarian, in the assay on OVCAR-8 ovarian, in the assay on SR leukemia and with T-47D breast was greater than 100 µM each time. The TGI with U251 CNS, in the assay on UACC-257 melanoma and in the assay on UACC-62 melanoma was greater than 100 µM in each case.

With `Cc1nc2ccccc2c(=O)n1NC(=O)c1ccccc1[N+](=O)[O-]`, the TGI in the assay on A549 NSCLC, with MDA-MB-231 breast, in the assay with OVCAR-4 ovarian, with SF-295 CNS, in the assay with SR leukemia and in the assay on T-47D breast was greater than 100 µM throughout. The TGI with U251 CNS, in the assay with UACC-257 melanoma and in the assay with UACC-62 melanoma was greater than 100 µM each time.

As for `Nc1nc(Nc2ccc(Cl)cc2)sc1C(=O)c1c[nH]c2ccccc12`, the TGI in the assay on A549 NSCLC is 29.5 µM; with MDA-MB-231 breast it was 35 µM; in the assay with OVCAR-4 ovarian it was 51.7 µM; in the assay with SR leukemia, greater than 100 µM; in the assay with T-47D breast, 92.3 µM; in the assay on U251 CNS it was 25.1 µM. Further, the TGI in the assay on UACC-257 melanoma amounted to 19.7 µM; in the assay with UACC-62 melanoma it was 28 µM.

`Nc1nc2c(c(-c3ccccc3Cl)n1)COC/C2=C\c1ccccc1Cl`: the TGI in the assay on MDA-MB-231 breast stood at 34.8 µM; in the assay with OVCAR-4 ovarian, 39 µM; with OVCAR-8 ovarian, 30.8 µM; in the assay on SF-295 CNS it was 27.7 µM; in the assay on SR leukemia, 22.9 µM; with T-47D breast, 44.8 µM. Moreover, the TGI in the assay on U251 CNS is 31.6 µM; in the assay on UACC-257 melanoma it was 34.7 µM; in the assay with UACC-62 melanoma, 30.6 µM.
